From ChEMBL document CHEMBL6092206, “Discovery and Characterization of BAY-184: A New Potent and Selective Acylsulfonamide-Benzofuran In Vivo-Active KAT6AB Inhibitor” (J Med Chem, 2024)
Values after ≈ are worked out from the molar mass of the structure shown.

Experiments:
[1] = molecular target: T1, Histone acetyltransferase KAT6A (Homo sapiens, UniProt Q92794); experiment: Inhibition of KAT6A in human MVLN cells assessed as decrease in estrogen receptor level incubated for 24 hrs by gene reporter assay; format: cell-based
T1 sequence (Q92794 whole entry, the tested form may be a part): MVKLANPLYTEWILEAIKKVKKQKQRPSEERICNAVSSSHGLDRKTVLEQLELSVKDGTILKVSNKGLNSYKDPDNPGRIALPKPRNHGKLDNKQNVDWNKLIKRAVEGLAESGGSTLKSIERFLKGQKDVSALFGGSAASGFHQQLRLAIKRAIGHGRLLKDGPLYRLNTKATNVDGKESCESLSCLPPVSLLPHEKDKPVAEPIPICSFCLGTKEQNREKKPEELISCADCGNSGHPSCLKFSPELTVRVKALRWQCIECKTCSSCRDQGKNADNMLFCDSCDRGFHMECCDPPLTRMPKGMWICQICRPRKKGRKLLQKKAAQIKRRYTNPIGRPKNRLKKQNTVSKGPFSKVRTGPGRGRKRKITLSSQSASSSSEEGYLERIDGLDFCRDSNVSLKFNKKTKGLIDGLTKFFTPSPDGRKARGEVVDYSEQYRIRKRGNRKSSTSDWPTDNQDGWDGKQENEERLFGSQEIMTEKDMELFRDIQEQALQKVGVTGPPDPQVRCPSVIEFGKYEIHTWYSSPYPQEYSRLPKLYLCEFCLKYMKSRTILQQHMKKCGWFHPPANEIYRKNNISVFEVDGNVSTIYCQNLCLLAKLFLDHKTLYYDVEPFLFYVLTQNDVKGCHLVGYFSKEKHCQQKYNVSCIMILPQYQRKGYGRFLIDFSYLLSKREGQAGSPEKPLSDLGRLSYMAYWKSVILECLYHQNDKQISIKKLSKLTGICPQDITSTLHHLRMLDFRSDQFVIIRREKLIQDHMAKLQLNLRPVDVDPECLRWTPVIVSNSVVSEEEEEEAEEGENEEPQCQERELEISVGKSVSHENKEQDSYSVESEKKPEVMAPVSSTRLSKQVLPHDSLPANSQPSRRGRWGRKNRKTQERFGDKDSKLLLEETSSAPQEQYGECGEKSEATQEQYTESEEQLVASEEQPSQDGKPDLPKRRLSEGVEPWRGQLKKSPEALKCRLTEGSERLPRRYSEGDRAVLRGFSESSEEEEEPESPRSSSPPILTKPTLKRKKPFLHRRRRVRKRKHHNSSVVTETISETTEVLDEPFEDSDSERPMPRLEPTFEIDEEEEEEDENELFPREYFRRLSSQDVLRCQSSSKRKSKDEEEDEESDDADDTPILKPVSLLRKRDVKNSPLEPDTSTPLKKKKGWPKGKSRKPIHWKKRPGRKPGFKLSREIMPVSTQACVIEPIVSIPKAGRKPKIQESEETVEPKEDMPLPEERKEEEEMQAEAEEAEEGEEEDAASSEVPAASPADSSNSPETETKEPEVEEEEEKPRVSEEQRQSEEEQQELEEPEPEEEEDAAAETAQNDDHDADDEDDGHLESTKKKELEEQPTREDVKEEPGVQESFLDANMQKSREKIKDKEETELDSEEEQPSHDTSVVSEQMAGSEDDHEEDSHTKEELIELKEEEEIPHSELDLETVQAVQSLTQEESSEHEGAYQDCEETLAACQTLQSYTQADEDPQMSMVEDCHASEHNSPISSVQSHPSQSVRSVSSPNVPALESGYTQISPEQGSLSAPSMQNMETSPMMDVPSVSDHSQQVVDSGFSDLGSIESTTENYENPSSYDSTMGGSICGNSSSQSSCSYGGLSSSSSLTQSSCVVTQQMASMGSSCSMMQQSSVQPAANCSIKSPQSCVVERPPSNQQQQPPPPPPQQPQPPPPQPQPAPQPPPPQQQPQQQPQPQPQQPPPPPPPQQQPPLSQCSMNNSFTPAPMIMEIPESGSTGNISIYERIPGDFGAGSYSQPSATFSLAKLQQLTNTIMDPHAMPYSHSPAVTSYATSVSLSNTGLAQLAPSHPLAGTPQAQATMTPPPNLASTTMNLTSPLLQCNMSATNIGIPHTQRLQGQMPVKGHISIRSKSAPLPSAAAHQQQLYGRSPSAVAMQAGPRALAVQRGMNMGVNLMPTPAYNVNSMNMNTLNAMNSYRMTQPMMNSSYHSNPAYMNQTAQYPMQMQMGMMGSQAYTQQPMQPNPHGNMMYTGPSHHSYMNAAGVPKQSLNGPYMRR

[2] = molecular target: T1, Histone acetyltransferase KAT6A; experiment: Inhibition of his-tagged human recombinant KAT6A (194 to 810 residues) expressed in baculovirus-infected Sf9 insect cells using H4-derived peptide as substrate incubated for 40 mins in presence of AcCoA by TR-FRET assay
[3] = Dissociation constant, pKa of compound; format: physicochemical
[4] = Apparent permeability across apical to basolateral side in human Caco-2 cells at 2 uM pH 7.2 measured for 2 hrs by LC-MS/MS analysis; format: ADME, cell-based
[5] = molecular target: Histone acetyltransferase KAT6B (Homo sapiens, UniProt Q8WYB5); experiment: Inhibition of C-terminal human recombinant KAT6B (431 to end residues) expressed in baculovirus-infected Sf9 insect cells using H4-derived peptide as substrate incubated for 30 mins in presence of AcCoA by TR-FRET assay
Histone acetyltransferase KAT6B, sequence (Q8WYB5 whole entry): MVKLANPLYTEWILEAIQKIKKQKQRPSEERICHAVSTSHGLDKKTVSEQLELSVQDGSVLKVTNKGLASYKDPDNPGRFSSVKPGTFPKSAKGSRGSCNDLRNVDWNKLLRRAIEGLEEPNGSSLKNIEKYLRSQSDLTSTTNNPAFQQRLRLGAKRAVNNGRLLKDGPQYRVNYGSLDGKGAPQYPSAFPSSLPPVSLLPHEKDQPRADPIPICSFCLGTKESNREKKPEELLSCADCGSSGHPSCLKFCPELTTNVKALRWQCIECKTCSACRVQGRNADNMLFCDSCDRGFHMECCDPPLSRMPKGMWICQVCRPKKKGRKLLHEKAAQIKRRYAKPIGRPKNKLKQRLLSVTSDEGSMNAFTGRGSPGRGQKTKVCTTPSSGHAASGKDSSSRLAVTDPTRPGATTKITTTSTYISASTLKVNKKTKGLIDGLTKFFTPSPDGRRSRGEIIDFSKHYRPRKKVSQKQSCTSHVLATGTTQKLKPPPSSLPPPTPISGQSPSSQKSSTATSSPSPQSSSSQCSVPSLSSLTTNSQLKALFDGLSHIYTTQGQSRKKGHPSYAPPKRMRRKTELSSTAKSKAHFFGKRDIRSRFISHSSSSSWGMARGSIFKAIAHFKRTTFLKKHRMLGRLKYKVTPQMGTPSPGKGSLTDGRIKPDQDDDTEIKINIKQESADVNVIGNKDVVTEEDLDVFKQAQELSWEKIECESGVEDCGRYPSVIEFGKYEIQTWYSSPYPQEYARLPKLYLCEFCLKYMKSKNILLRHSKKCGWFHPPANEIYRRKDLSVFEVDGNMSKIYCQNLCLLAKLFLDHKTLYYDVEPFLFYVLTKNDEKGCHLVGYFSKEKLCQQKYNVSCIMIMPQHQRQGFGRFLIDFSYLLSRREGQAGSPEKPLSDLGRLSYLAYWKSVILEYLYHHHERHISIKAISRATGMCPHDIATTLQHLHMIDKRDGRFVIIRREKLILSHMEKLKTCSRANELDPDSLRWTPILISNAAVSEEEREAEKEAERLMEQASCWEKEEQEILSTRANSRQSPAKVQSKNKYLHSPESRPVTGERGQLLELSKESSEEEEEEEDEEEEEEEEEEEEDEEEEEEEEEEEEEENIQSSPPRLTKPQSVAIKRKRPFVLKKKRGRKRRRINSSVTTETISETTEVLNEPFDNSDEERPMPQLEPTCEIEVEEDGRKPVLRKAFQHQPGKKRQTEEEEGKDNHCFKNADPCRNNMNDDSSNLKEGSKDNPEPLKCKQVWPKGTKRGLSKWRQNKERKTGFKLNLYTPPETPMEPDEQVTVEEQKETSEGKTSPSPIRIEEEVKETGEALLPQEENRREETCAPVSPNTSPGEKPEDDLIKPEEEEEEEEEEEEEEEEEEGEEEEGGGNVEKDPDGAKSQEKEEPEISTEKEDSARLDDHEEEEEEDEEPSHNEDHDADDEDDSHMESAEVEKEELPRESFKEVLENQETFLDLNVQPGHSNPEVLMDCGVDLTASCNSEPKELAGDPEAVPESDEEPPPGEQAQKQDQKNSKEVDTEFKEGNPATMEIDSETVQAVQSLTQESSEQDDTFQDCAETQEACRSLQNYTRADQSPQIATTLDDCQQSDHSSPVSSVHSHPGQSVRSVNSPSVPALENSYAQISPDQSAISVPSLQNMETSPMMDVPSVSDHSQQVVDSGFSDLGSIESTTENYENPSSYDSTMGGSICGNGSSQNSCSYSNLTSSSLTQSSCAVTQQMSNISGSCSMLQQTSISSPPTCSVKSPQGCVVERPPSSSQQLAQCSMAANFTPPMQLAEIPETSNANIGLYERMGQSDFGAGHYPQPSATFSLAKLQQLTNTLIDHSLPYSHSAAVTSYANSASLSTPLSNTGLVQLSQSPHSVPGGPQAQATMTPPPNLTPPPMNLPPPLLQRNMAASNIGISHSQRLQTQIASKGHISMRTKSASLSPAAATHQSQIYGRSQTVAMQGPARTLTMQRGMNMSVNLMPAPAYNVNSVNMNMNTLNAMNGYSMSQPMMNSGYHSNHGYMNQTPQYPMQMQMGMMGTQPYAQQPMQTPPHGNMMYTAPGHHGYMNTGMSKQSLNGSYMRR

[6] = Lipophilicity, logD of the compound at pH 7.5; format: physicochemical; settings: buffer
[7] = Aqueous solubility of compound in PBS at pH 6.5 incubated for 24 hrs by HPLC-UV analysis; format: physicochemical
[8] = Efflux ratio of apparent permeability across basolateral to apical side over apical to basolateral side in human Caco-2 cells incubated for 2 hrs by LC-MS/MS analysis; format: ADME, cell-based; settings: caco-2, 2 h

| IC50 [1] [µM] | IC50 [2] [µM] | Compound | further results |
| --- | --- | --- | --- |
| > 15.6 | – | COCCc1ccc2cc(C(=O)NS(=O)(=O)c3ccccc3-c3ccccc3)oc2c1 | – |
| > 11 | – | Cc1ccc2cc(C(=O)NS(=O)(=O)c3ccccc3-c3ccccc3)oc2c1 | – |
| 1.4 | 0.032 | CCOc1cccc(-c2ccccc2)c1S(=O)(=O)NC(=O)c1cc2c(C)cc(OC)cc2o1 | pKa [3]: 5.6 |
| > 20 | 0.066 | Cc1cc(Br)cc2oc(C(=O)NS(=O)(=O)c3ccccc3-c3ccccc3)cc12 | – |
| 9.75 | 0.554 | CCOc1ccc2cc(C(=O)NS(=O)(=O)c3ccccc3-c3ccccc3)oc2c1 | – |
| > 20 | 0.751 | CCCN(C)c1ccc2cc(C(=O)NS(=O)(=O)c3ccccc3-c3ccccc3)oc2c1 | – |
| 1 | 0.173 | O=C(NS(=O)(=O)c1ccccc1-c1ccccc1)c1cc2c(F)cc(C3CC3)cc2o1 | – |
| – | – | CCOc1ccccc1S(=O)(=O)NC(=O)c1cc2c(OC)cc(OC)cc2o1 | Papp A→B at 2 h, 2 µM ([4]; Caco-2, pH 7.2): 2.8 ×10⁻⁶ cm/s |
| > 15.5 | 1.35 | COCCN(C)c1ccc2cc(C(=O)NS(=O)(=O)c3ccccc3-c3ccccc3)oc2c1 | – |
| 2.28 | 0.075 | COc1cc(C)c2cc(C(=O)NS(=O)(=O)c3ccc(Cl)cc3)oc2c1 | pKa [3]: 2.9 |
| > 20 | 1.37 | O=C(NS(=O)(=O)c1ccccc1-c1ccccc1)c1cc2ccc(OCCO)cc2o1 | – |
| 18.2 | 0.107 | COc1cc(C)c2cc(C(=O)NS(=O)(=O)c3ccc(C)cc3)oc2c1 | pKa [3]: 3 |
| 2.58 | – | CNc1ccc2cc(C(=O)NS(=O)(=O)c3ccccc3-c3ccccc3)oc2c1 | – |
| 10 | – | COc1cc(C)cc2oc(C(=O)NS(=O)(=O)c3ccccc3-c3ccccc3)cc12 | – |
| – | 0.454 | Cc1cccc2oc(C(=O)NS(=O)(=O)c3ccccc3-c3ccccc3)cc12 | IC50 [5]: 2.57 µM |
| 3.68 | 0.011 | CCOc1cccc(-c2cccc(Cl)c2)c1S(=O)(=O)NC(=O)c1cc2c(C)cc(OC)cc2o1 | pKa [3]: 6 |
| > 17.6 | 0.046 | COc1cc(C)c2cc(C(=O)NS(=O)(=O)c3ccc(-c4ccccc4)cc3)oc2c1 | pKa [3]: 5.8 |
| 4.52 | 0.142 | COc1cccc2cc(C(=O)NS(=O)(=O)c3ccccc3-c3ccccc3)oc12 | IC50 [5]: 0.351 µM |

| IC50 [1] [µM] | IC50 [2] [µM] | Compound | further results |
| --- | --- | --- | --- |
| > 20 | 0.01 | COc1cc(C)c2cc(C(=O)NS(=O)(=O)c3ccc(C)cc3-c3ccccc3)oc2c1 | pKa [3]: 4.7 |
| – | 1.8 | COc1ccc2oc(C(=O)NS(=O)(=O)c3ccccc3-c3ccccc3)cc2c1 | IC50 [5]: 9.02 µM |
| > 20 | – | O=C(NS(=O)(=O)c1ccccc1-c1ccccc1)c1cc2ccc(C(F)F)cc2o1 | – |
| 3.02 | – | CC(C)c1ccc2cc(C(=O)NS(=O)(=O)c3ccccc3-c3ccccc3)oc2c1 | – |
| 2.5 | – | Cc1cc(C)c2cc(C(=O)NS(=O)(=O)c3ccccc3-c3ccccc3)oc2c1 | – |
| 1.32 | – | C=C(C)c1ccc2cc(C(=O)NS(=O)(=O)c3ccccc3-c3ccccc3)oc2c1 | – |
| 0.06 | – | CN(C)c1cc(F)c2cc(C(=O)NS(=O)(=O)c3ccccc3-c3ccccc3)oc2c1 | logD [6]: 2; solubility at 24 h [7]: 264 µg/mL (≈ 602 µM) |
| 2.57 | 0.013 | COc1cc(C)c2cc(C(=O)NS(=O)(=O)c3cccc4ccc(C)nc34)oc2c1 | – |
| > 20 | > 20 | O=C(NS(=O)(=O)c1ccccc1-c1ccccc1)c1cc2ccc(N3CCOCC3)cc2o1 | – |
| > 20 | 2.16 | O=C(NS(=O)(=O)c1ccccc1-c1ccccc1)c1cc2ccccc2o1 | IC50 [5]: 10.5 µM |
| 13.2 | 0.046 | COc1cc(C)c2cc(C(=O)NS(=O)(=O)c3ccccc3OC)oc2c1 | pKa [3]: 3.2 |
| > 4.6 | 0.024 | COc1cc(C)c2cc(C(=O)NS(=O)(=O)c3ccccc3-c3ccccc3)oc2c1 | Papp ([4]; caco-2, pH 7.2, 2 h, 2 µM): 6.4 ×10⁻⁶ cm/s; IC50 [5]: 0.076 µM; Ratio [8]: 1; pKa [3]: 4.3 |
| – | 1.35 | COc1cccc2oc(C(=O)NS(=O)(=O)c3ccccc3-c3ccccc3)cc12 | IC50 [5]: 3.14 µM |
| 6.54 | 0.019 | CCCOc1ccccc1S(=O)(=O)NC(=O)c1cc2c(C)cc(OC)cc2o1 | pKa [3]: 4 |
| > 20 | – | Cc1cc(N(C)C)cc2oc(C(=O)NS(=O)(=O)c3ccccc3-c3ccccc3)cc12 | – |
| 8.68 | 1.54 | CCCOc1ccc2cc(C(=O)NS(=O)(=O)c3ccccc3-c3ccccc3)oc2c1 | – |
| 7.62 | 0.26 | COc1ccc2cc(C(=O)NS(=O)(=O)c3ccccc3-c3ccccc3)oc2c1 | IC50 [5]: 0.368 µM |

| Compound | IC50 [1] [µM] | IC50 [2] [µM] | further results |
| --- | --- | --- | --- |
| O=C(NS(=O)(=O)c1ccccc1-c1ccccc1)c1cc2ccc(C3CC3)cc2o1 | 1.02 | – | – |
